Source: ChEMBL document CHEMBL6121007, “Design, synthesis and evaluation of pyrimidine derivatives as sedative-hypnotic agents” (Eur J Med Chem, 2025)

Experiments:
[1] = Upregulation of FoxO signaling pathway related genes in hypothalamus of mouse at 2.5 mg/kg, ip measured after 30 mins by KEGG enrichment analysis relative to control; assay type: functional; conditions: 0.5 h
Mus musculus [2] = assay: Upregulation of apoptosis related genes in hypothalamus of mouse at 2.5 mg/kg, ip measured after 30 mins by KEGG enrichment analysis relative to control; assay type: functional; conditions: 0.5 h
[3] = Bioavailability in male Sprague-Dawley rat at 2.5 mg/kg, ip measured after 5 to 1440 mins by LC-MS/MS analysis; assay type: ADME, organism-based; conditions: in vivo, time 5-1440 min
[4] = Clearance in male Sprague-Dawley rat at 2.5 mg/kg, ip measured after 5 to 1440 mins by LC-MS/MS analysis; assay type: ADME, organism-based; conditions: in vivo, time 5-1440 min
Mus musculus [5] = assay: Upregulation of signaling pathways regulating pluripotent stem cells related genes in hypothalamus of mouse at 2.5 mg/kg, ip measured after 30 mins by KEGG enrichment analysis relative to control; assay type: functional; conditions: 0.5 h
Mus musculus [6] = assay: Upregulation of glycine metabolism related genes in hypothalamus of mouse at 2.5 mg/kg, ip measured after 30 mins by KEGG enrichment analysis relative to control; assay type: functional; conditions: 0.5 h

## CCn1c2ccccc2c2cc(Nc3ccnc(Nc4ccc(C)c(OC)c4)n3)ccc21
[1]
  Activity: 4.62%
Mus musculus [2]
  Activity: 3.47%
[3]
  bioavailability: 74.5%
[4]
  CL/F: 0.761 L/h/kg
Mus musculus [5]
  Activity: 2.89%
Mus musculus [6]
  Activity: 1.73%
